# Experimental data as given in US20240018123A1, “COMPOUND FOR INHIBITING OR DISINTEGRATING ANDROGEN RECEPTOR, AND PHARMACEUTICAL USE THEREOF” (KOREA RESEARCH INSTITUTE OF CHEMICAL TECHNOLOGY, priority 2020, published 2024).
# Target: T1, Androgen receptor (AR) (Homo sapiens, UniProt P10275, T878A)
# T1 construct: 5.5×10^5 LNCap cells were injected into each well of a 6-well plate; endogenous in cells; host or cells: LNCaP
# T1 sequence (P10275 1-920 T878A): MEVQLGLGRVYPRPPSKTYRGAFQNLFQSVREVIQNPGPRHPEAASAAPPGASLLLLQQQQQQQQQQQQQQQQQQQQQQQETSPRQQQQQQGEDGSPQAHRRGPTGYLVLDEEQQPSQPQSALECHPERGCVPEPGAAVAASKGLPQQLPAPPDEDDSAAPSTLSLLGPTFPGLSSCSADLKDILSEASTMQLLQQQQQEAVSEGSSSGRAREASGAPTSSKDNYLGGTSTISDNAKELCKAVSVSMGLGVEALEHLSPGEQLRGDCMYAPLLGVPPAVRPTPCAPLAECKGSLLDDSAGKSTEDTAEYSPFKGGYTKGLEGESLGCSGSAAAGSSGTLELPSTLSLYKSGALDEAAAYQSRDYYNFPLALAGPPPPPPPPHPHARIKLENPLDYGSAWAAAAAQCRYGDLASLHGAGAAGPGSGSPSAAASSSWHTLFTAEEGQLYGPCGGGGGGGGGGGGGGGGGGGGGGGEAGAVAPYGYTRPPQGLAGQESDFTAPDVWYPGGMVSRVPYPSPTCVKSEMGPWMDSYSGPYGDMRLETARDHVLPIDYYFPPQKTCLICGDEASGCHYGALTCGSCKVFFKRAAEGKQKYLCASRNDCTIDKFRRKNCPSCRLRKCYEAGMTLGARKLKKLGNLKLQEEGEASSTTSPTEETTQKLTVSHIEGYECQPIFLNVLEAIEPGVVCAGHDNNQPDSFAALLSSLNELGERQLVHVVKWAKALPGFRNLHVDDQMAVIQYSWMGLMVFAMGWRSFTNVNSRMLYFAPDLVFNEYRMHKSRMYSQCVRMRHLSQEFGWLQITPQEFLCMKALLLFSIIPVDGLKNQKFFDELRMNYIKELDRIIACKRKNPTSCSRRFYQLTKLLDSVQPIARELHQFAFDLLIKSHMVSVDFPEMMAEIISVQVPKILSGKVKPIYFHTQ
# Experiment: Assessment of AR proteolytic activity (Western blotting of LNCap cell lysates)
# Assay type: cell-based
# Conditions: 24 hours of treatment, Western blotting quantified with Image J
# Description: Assessment of AR Proteolytic Activity
# Androgen receptor (AR) proteolytic activity of the compound according to the present invention was evaluated as follows: Specifically, 5.5×10^5 LNCap cells were injected into each well of a 6-well plate. […] After 24 hours of treatment, cells were collected and lysed using RIPA Lysis buffer (50 mM Tris-HCl, pH7.5, 150 mM NaCl, 1% Triton X-100, 2 mM EDTA, 0.1% SDS, 0.5% sodium deoxycholate and protease inhibitor cocktail) to make cell lysates. Western blotting was performed, and the results were quantified using Image J program.
row,Structure (SMILES),"Degradation (1 μM treated in LNCaP, % AR remaining)"
1,"CC1(C)C(NC(=O)c2ccc(N3CCC(CN4CC5(CCN(c6ccc7nnn(C8CCC(=O)NC8=O)c(=O)c7c6)CC5)C4)CC3)nc2)C(C)(C)C1Oc1ccc(C#N)c(Cl)c1 (stereo not shown) [Example 170, N-((1r,3r)-3-(3-chloro-4-cyanophenoxy)-2,2,4,4-tetramethylcyclobutyl)-6-(4-((7-(3-(2,6-dioxopiperidin-3-yl)-4-oxo-3,4-dihydrobenzo[d][1,2,3]triazin-6-yl)-2,7-diazaspiro[3.5]nonan-2-yl)methyl)piperidin-1-yl)nicotinamide]",16%
2,"CC1(C)C(NC(=O)c2ccc(N3CCC(CN4CCN(c5ccc6nnn(C7CCC(=O)NC7=O)c(=O)c6c5)CC4)CC3)nc2)C(C)(C)C1Oc1ccc(C#N)c(Cl)c1 (stereo not shown) [Example 162, N-((1r,3r)-3-(3-chloro-4-cyanophenoxy)-2,2,4,4-tetramethylcyclobutyl)-6-(4-((4-(3-(2,6-dioxopiperidin-3-yl)-4-oxo-3,4-dihydrobenzo[d][1,2,3]triazin-6-yl)piperazin-1-yl)methyl)piperidin-1-yl)nicotinamide]",30%
3,"CC1(C)C(NC(=O)c2ccc(N3CCC4(CC3)CN(CC3CN(c5ccc6nnn(C7CCC(=O)NC7=O)c(=O)c6c5)C3)C4)nc2)C(C)(C)C1Oc1ccc(C#N)c(Cl)c1 (stereo not shown) [Example 176, N-((1r,3r)-3-(3-chloro-4-cyanophenoxy)-2,2,4,4-tetramethylcyclobutyl)-6-(2-((1-(3-(2,6-dioxopiperidin-3-yl)-4-oxo-3,4-dihydrobenzo[d][1,2,3]triazin-6-yl)azetidin-3-yl)methyl)-2,7-diazaspiro[3.5]nonan-7-yl)nicotinamide]",6%
4,"CC1(C)C(NC(=O)c2ccc(C#CC3CCN(CC4CN(c5ccc6nnn(C7CCC(=O)NC7=O)c(=O)c6c5)C4)CC3)nc2)C(C)(C)C1Oc1ccc(C#N)c(Cl)c1 (stereo not shown) [Example 184, N-((1r,3r)-3-(3-chloro-4-cyanophenoxy)-2,2,4,4-tetramethylcyclobutyl)-6-((1-((1-(3-(2,6-dioxopiperidin-3-yl)-4-oxo-3,4-dihydrobenzo[d][1,2,3]triazin-6-yl)azetidin-3-yl)methyl)piperidin-4-yl)ethynyl)nicotinamide]",11%
5,"CC1(C)[C@H](NC(=O)c2ccc(N3CCC(CN4CCC5(CC4)CN(c4ccc6c(=O)n(C7CCC(=O)NC7=O)nnc6c4)C5)CC3)nc2)C(C)(C)[C@H]1Oc1ccc(C#N)c(Cl)c1 (stereo partly shown) [Example 171, N-((1r,3r)-3-(3-chloro-4-cyanophenoxy)-2,2,4,4-tetramethylcyclobutyl)-6-(4-((2-(3-(2,6-dioxopiperidin-3-yl)-4-oxo-3,4-dihydrobenzo[d][1,2,3]triazin-7-yl)-2,7-diazaspiro[3.5]nonan-7-yl)methyl)piperidin-1-yl)nicotinamide]",11%
6,"CC1(C)C(NC(=O)c2ccc(N3CCC(CN4CCN(C5CCN(c6ccc7c(=O)n(C8CCC(=O)NC8=O)nnc7c6)CC5)CC4)CC3)nc2)C(C)(C)C1Oc1ccc(C#N)c(Cl)c1 (stereo not shown) [Example 193, N-((1r,3r)-3-(3-chloro-4-cyanophenoxy)-2,2,4,4-tetramethylcyclobutyl)-6-(4-((4-(1-(3-(2,6-dioxopiperidin-3-yl)-4-oxo-3,4-dihydrobenzo[d][1,2,3]triazin-7-yl)piperidin-4-yl)piperazin-1-yl)methyl)piperidin-1-yl)nicotinamide]",12%
7,"CC1(C)C(NC(=O)c2ccc(N3CCC(CN4CCN(c5ccc6c(=O)n(C7CCC(=O)NC7=O)nnc6c5)CC4)CC3)cc2)C(C)(C)C1Oc1ccc(C#N)c(Cl)c1 (stereo not shown) [Example 165, N-((1r,3r)-3-(3-chloro-4-cyanophenoxy)-2,2,4,4-tetramethylcyclobutyl)-4-(4-((4-(3-(2,6-dioxopiperidin-3-yl)-4-oxo-3,4-dihydrobenzo[d][1,2,3]triazin-7-yl)piperazin-1-yl)methyl)piperidin-1-yl)benzamide]",8%
